Data set [1] can be described thus: Isothermal titration calorimetry (ITC) of CB[6] host with dicationic guest molecules. The conditions noted are these: in water at 30° C. It is filed as binding. The procedure: Isothermal titration calorimetry (ITC) was previously employed to study complexation parameters of Compound 1 [63]. Measurement of the host-guest binding thermodynamic profile using ITC provides in a single experiment not only the binding constants (Kb) and binding stoichiometry (n), but also the differences of enthalpy (ΔH) and entropy (ΔS) of binding.
The experiment was carried out by loading the ITC sample cell with saturated aqueous solution of Compound 1 (1.4 ml) and titrating it with a neutral aqueous solution of the dicationic dihydrochloride salts of various exemplary guest molecules at concentrations that ranged from 3.3 mM to 5.0 mM. The heat generated during each injection was recorded (FIG. 1) and the thermodynamic parameters were acquired by non-linear least squares fit of the calorimetric titration data to a one-site binding model (Table 2).
A saturated solution of Compound 1 (0.4 mM) in water at pH=7 was prepared by stirring an excess of finely powdered Compound 1 overnight at 30° C. and filtering through a 100-μm micro-filter. Solutions of the guest molecules at concentrations of 3.3-6 mM, were prepared and filtered through a 100-μm micro-filter as well. Titration calorimetry measurements were performed with a VP-ITC calorimeter (Microcal, Northampton, Mass.) as previously described. Repeat determinations indicated errors of 3-10% in n, ΔH, degree, and K values over the most favorable concentration range. A solution of Compound 1 was titrated by 29 injections of 6 μL of guest molecule solutions at 30° C. each, and the titration data were analyzed using Origin2000 software.

For data set [2] the following is noted: cited from earlier work.
The nature of another data set: Solubility. The conditions noted are these: water at pH=7, 30° C. Format: physicochemical.
The conditions of data set [3]: cited from earlier work. This is another data set of the same source.

Converted amounts (≈) assume the structure as drawn. Like-named read-outs stand apart in the source and are kept apart here.

Regarding `Cl.Cl.NCC#CC#CCN` [Compound 4′, Hexa-2,4-diyne-1,6-diammonium dihydrochloride], in data set [1], the ΔH of binding was -0.696 ± 0.005 kcal/mol and the ΔS of binding was determined as 23.51.

Take `O=C1N2CN3C(=O)N4CN5C(=O)N6CN7C(=O)N8CN9C(=O)N%10CN%11C(=O)N%12CN%13C(=O)N%14CN1C1C2N2CN%15C(=O)N(CN%16C(=O)N(CN%17C(=O)N(CN%18C(=O)N(CN%19C(=O)N(CN%20C(=O)N(CN1C2=O)C%14C%13%20)C%12C%11%19)C%10C9%18)C8C7%17)C6C5%16)C4C3%15` (stereo not drawn) [CB[7]]: the “solubility in aqueous acid” value in data set [2] (3M HCl) is “about 700 mM”.

On to `O=C1N2CN3C(=O)N4CN5C(=O)N6CN7C(=O)N8CN9C(=O)N%10CN%11C(=O)N%12CN1C1C2N2CN%13C(=O)N(CN%14C(=O)N(CN%15C(=O)N(CN%16C(=O)N(CN%17C(=O)N(CN1C2=O)C%12C%11%17)C%10C9%16)C8C7%15)C6C5%14)C4C3%13` (stereo not drawn) [Compound 1, Cucurbit[6]uril], for which the “concentration of saturated solution in water” value in the data set “Solubility” was 400 µM. Also, the “solubility in aqueous acid” value in data set [2] (HCO2H/H2O (1:1)) was 61 mM (≈ 60.8 mg/mL). Moreover, the “pKa value of the conjugate acid” value in data set [3] was 3.02.

Turning to `NCCCCCCN` [Compound 3′, 1,6-diaminohexane], in data set [1], the ΔH of binding was -13.760 ± 0.090 kcal/mol and the ΔS of binding is -20.4 cal/(mol·K). Also, the “ΔS of binding (entropy term, text)” value in data set [1] (text values in J) is −85.77 J/mol.° K. Also, the “ΔH binding enthalpy” value in data set [1] (text values in KJ) was -13.76 kcal/mol.

In the case of `O=C1N2CN3C(=O)N4CN5C(=O)N6CN7C(=O)N8CN9C(=O)N%10CN1C1C2N2CN%11C(=O)N(CN%12C(=O)N(CN%13C(=O)N(CN%14C(=O)N(CN1C2=O)C%10C9%14)C8C7%13)C6C5%12)C4C3%11` (stereo not drawn) [CB[5]], the “solubility in aqueous acid” value in data set [2] (3M HCl) is recorded as “about 60 mM”.

For the compound `Cl.Cl.NCC#CC#CCN1CCCC1` [Compound 5′, N-6-pyrrolidinium-hexa-2,4-diynyl ammonium dichloride], in data set [1], the ΔH of binding was -4.452 ± 0.057 kcal/mol and the ΔS of binding was 9.29 cal/(mol·K).

`C(C#CCN1CCCC1)#CCN1CCCC1.Cl.Cl` [Compound 6′, 1,6-Dipyrrolidinium-2,4-hexadiyne dichloride]: in data set [1], the ΔH of binding was -3.718 ± 0.044 kcal/mol and the ΔS of binding is 12.8 cal/(mol·K).

The record behind these values is patent publication US8715635B2, “Frictionless molecular rotary motors” (Technion Research & Development Foundation Limited, priority 2007, dated 2014).
